Data published in patent US20190254992A1, “COMBINATIONS OF BETA-GLYCOLIPIDES AND 4-[(2-AMINO-3,5-DIBROMOPHENYL)METHYLAMINO]CYCLOHEXAN-1-OL, COMPOSITIONS AND USES THEREOF IN THE TREATMENT OF DISORDERS ASSOCIATED WITH PROTEIN MISFOLDING AND PROTEIN AGGREGATIONS” (HADASIT MEDICAL RESEARCH SERVICES & DEVELOPMENT LIMITED, priority 2016, published 2019).

Tests used:
[1] = test system: immune-mediated liver injury; assay: Serum liver enzymes (ALT, AST) in ConA immune-mediated hepatitis mice; format: in vivo, C57Bl/6 mice; conditions: oral, daily for 5 days, ConA-injected mice; for AST levels: control group A 9140; for ALT levels: control group A 24040
Description: Male C57Bl/6 mice (12 weeks old) were obtained from Harlan Laboratories (Jerusalem, Israel) and maintained in the Animal Core of the Hadassah-Hebrew University Medical School. Mice were kept at 11-12 weeks of age and maintained in the Animal Core of the Hadassah-Hebrew University Medical School. All mice were administered standard laboratory chow and water ad libitum and kept in a 12-hour light/dark cycle. All experiments were performed in accordance with the guidelines of the Hebrew University-Hadassah Institutional Committee for Care and Use of Laboratory Animals (IACUC protocol number: MD-16-14986-3). Four groups of mice (n=4) were studied. Mice in all groups were injected with Concanavalin A (Con A, […]). Mice in control group A were treated with PBS. Mice in group B were orally administered 6 mg of GC, per mouse daily for 5 days prior to ConA injection. […] Serum aspartate aminotransferase (AST) and alanine aminotransferase (ALT) levels were determined with an automatic analyzer on all mice in all groups.

alpha-synuclein = conditions: neuroblastoma line engineered to overexpress alpha-synuclein; cited from earlier work
type 3 neuropathic GD = conditions: high doses, cited from earlier work
[2] = test system: non-neuronopathic form of GD; conditions: patients with non-neuronopathic GD; cited from earlier work
glucosylceramidase = conditions: fibroblasts from healthy controls, Gaucher patients, heterozygous GBA mutation with and without Parkinson's disease; cited from earlier work
[3] = test system: serum cytokines (IL-1α, IL-4, IFN-γ, IL-6); assay: Serum cytokine measurement (MILLIPLEX/Luminex) in ConA immune-mediated hepatitis mice; format: in vivo, C57Bl/6 mice; conditions: oral, daily for 5 days, ConA-injected mice; for serum IL-1a: control group A 206.5; for serum IL-6: control group A 11768
Description: Male C57Bl/6 mice (12 weeks old) were obtained from Harlan Laboratories (Jerusalem, Israel) and maintained in the Animal Core of the Hadassah-Hebrew University Medical School. Mice were kept at 11-12 weeks of age and maintained in the Animal Core of the Hadassah-Hebrew University Medical School. All mice were administered standard laboratory chow and water ad libitum and kept in a 12-hour light/dark cycle. All experiments were performed in accordance with the guidelines of the Hebrew University-Hadassah Institutional Committee for Care and Use of Laboratory Animals (IACUC protocol number: MD-16-14986-3).
Four groups of mice (n=4) were studied. Mice in all groups were injected with Concanavalin A (Con A, […]). Mice in control group A were treated with PBS. Mice in group B were orally administered 6 mg of GC, per mouse daily for 5 days prior to ConA injection.
Cytokine assessment was performed by MILLIPLEX® Analytes (EMD Millipore Corporation, Missouri 63304 U.S.A.) based on the Luminex xMAP® technology for performing immunoassays on the surface of fluorescent-coded magnetic beads MagPlex®-C microspheres. Acquiring and analyzing the data were performed using the Luminex analyzer (MAGPIX®) software. Cytokines assessment was measured by mean fluorescence intensity (MFI).

| Molecule | AST levels [1] [IU] | ALT levels [1] [IU] | alpha-synuclein levels (alpha-synuclein) | subjective-functional scores and objective scores (VEP, ocular movements) (type 3 neuropathic GD; 5 individuals with type 3 neuropathic GD) | GCase activity in lymphocytes (type 3 neuropathic GD; type 3 neuropathic GD patients) | clinical outcome of ambroxol treatment [2] | glucosylceramidase activity (glucosylceramidase) | markers of oxidative stress (glucosylceramidase) | IFN-γ change (in words) [3] | serum IL-1a [3] [pg/mL] | serum IL-6 [3] [pg/mL] | IFN-γ ([3]; control group A 643) [pg/mL] |
| --- | --- | --- | --- | --- | --- | --- | --- | --- | --- | --- | --- | --- |
| Nc1c(Br)cc(Br)cc1CN[C@H]1CC[C@H](O)CC1 [Ambroxol, trans-4-(2-Amino-3,5-dibrombenzylamino)-cyclohexanol] | 8516 | 16455 | reduces | substantial clinical improvement | Increased | disease stability | increased | reduced | did not show any decrease | 131 | 9504 |  |
| B-glucosylceramide [GC] | 2939 | 4198 |  |  |  |  |  |  |  | 48 | 984 | 36 |
